# According to patent publication US8518979B2, “Alpha-halo- and alpha-alkyl-cyclopropylcarboxy compounds and uses thereof” (Yissum Research Development Company of the Hebrew …, priority 2007, dated 2013):
# Values joined by “and” are separate entries in the source; they are usually repeats but may differ in a detail not shown here. Equal values may be shown once. Read-outs that look alike come from different tables or passages of the source.
# Columns and labels:
# [1] = test system: maximal electroshock induced seizures (tonic hind limb extension); conditions: cited from earlier work
# [2] = test system: metrazole induced clonic seizures; conditions: cited from earlier work; for protective index (TD50/ED50): comparison compounds, seizure model not stated
# [3] = test system: hippocampal kindled seizures; assay: Hippocampal kindling assay in rats; format: in vivo; conditions: Rattus norvegicus
# Protocol: In a third model, the hippocampal kindling assay was used to identify new drug candidates effective for the treatment of difficult-to-control seizure types, focal seizures and complex partial seizures, as well as compounds that may be effective as mood stabilizer for treating bipolar disorder, and was conducted according to the protocol described therein.
# Briefly, this test was conducted by using a bipolar stimulating electrode which was implanted in the hippocampus of rats, and the rats were kindled according to a described method. One week after implantation of the electrodes, the rats were stimulated with supra-threshold trains of 200 μA and 50 Hz for 10 seconds every 30 minutes for 6 hours on alternate days until the animals were fully kindled. […] The behavioral seizures were scored according to the following criteria (“seizure score”): stage 1—mouth and facial clonus; stage 2—stage 1 plus head nodding; stage 3—stage 2 plus forelimb clonus; stage 4—stage 3 plus rearing; and stage 5—stage 4 plus repeated rearing and falling.
# [4] = test system: metrazole induced clonic seizures; assay: Subcutaneous metrazol seizure threshold test (scMet) in rats; conditions: for ED50: Rattus norvegicus; for Fraction of rats which responded to the treatment: scMet rat model; for ScMet, fraction of rats: rat p.o, 50 mg/kg
# 6 Hz (32 mA) seizures = assay: Psychomotor seizure (6 Hz, 32 mA) assay in mice; format: in vivo; conditions: Mus musculus
# minimal neurotoxicity [5] = assay: Neurotoxicity (gait and stance assay, TD50) in rats; format: in vivo, rat; conditions: for Toxicity, fraction of rats: rat p.o, 50 mg/kg
# Protocol: (§1) Neurotoxicity assays are design to assess the effect of putative neurotoxicants on the normal activity of the nervous system, which can adversely disrupt or cause neuronal death, and damage other parts of the nervous system. The median neurological toxic dose (TD50) is used for quantization of neurotoxicity.
# The neurotixicity studies were conducted according to the protocol described in White, H. S., et al., in “General principles. Discovery and preclinical development of antiepileptic drugs”, 5th edition, Levy R H, Mattson R H, Meldrum B S, Perucca E. (editors); Antiepileptic drugs; Lippincott-Raven; Philadelphia: 2002. pp. 36-48.
# Neurotoxicity of the α-halo-2,2,3,3-tetramethylcyclopropanecarboxy compounds of the present embodiments was assessed in rats treated therewith by oral administration and observed in the “gait and stance” assay, which assesses minimal neurotoxicity. The neurotoxicity studies were conducted according to the protocol described in White H S. et al., General principles-Discovery and preclinical development of antiepileptic drugs, in: Antiepileptic Drugs, 5th edition, R H Wilkins, Philadelphia 2002, pp. 36-48.
# motor impairment = assay: Toxicity observed in mice (6 Hz 44 mA test line of Table 3); format: in vivo
# Source text: as §1
# 6 Hz (44 mA) seizures = assay: Psychomotor seizure (6 Hz, 44 mA) assay in mice; format: in vivo; conditions: Mus musculus
# minimal neurotoxicity [6] = conditions: cited from earlier work
# neuropathic pain = conditions: spinal nerve ligated rat models; cited from earlier work
# [7] = test system: maximal electroshock induced seizures (tonic hind limb extension); assay: Maximal electroshock seizure test (MES) in rats; format: in vivo; conditions: rat p.o, 50 mg/kg
# teratogenicity = assay: Mouse model for VPA-induced teratogenicity; conditions: unpublished results
# [8] = test system: maximal electroshock induced seizures; conditions: mice models injected intraperitoneally; cited from earlier work
# [9] = rat scMet models, literature comparison
smiles,measurement,setting,value
"CONC(=O)C1C(C)(C)C1(C)C [Compound VI, N-methoxy-2,2,3,3-tetramethylcyclopropanecarboxamide]",ED50,"[1]; MES tests, rats injected intraperitoneally",57 mg/kg
same,ED50,"[2]; scMet tests, rats injected intraperitoneally",9.8 mg/kg
"CC1(C)C(C)(C)C1(F)C(N)=O [Compound 1, α-fluoro-2,2,3,3-tetramethylcyclopropanecarboxamide]",ED50,[3],29.5 mg/kg and 180 µmol/kg
same,ED50,[4]; po,6 mg/kg and 40 µmol/kg
same,protective index (TD50/ED50),"[4]; rat, in vivo, po",19.5
same,Fraction of rats which responded to the treatment,[4]; dose 2 mg/kg,0/8
same,Fraction of rats which responded to the treatment,[4]; dose 6 mg/kg,5/8
same,Fraction of rats which responded to the treatment,[4]; dose 12.5 mg/kg,6/8
same,Fraction of rats which responded to the treatment,[4]; dose 25 mg/kg,8/8
same,ED50,6 Hz (32 mA) seizures,< 50 mg/kg and < 310 µmol/kg
same,Toxicity (TD50),"minimal neurotoxicity [5]; rats, oral administration",117 mg/kg
same,Toxicity,motor impairment,Minimal motor
same,ED50,6 Hz (44 mA) seizures,~50 mg/kg and ~310 µmol/kg
"CNC(=O)C1C(C)(C)C1(C)C [Compound IV, N-methyl-2,2,3,3-tetramethylcyclopropanecarboxamide]",neurotoxicity,"minimal neurotoxicity [6]; rat, in vivo",non-neurotoxic
same,potency as therapeutic for neuropathic pain,neuropathic pain,equipotent to GABApentin
same,protective index (TD50/ED50),[2],2
"CC1(C)C(C)(C)C1(C)C(N)=O [Compound 4, 1,2,2,3,3-pentamethylcyclopropanecarboxamide]",ED50,"[4]; sc, read-out: ED50 (not determined quantitatively, estimated)",< 50 mg/kg
same,"ScMet, fraction of rats",[4]; 0.25 hours after dosing,0/4
same,"ScMet, fraction of rats",[4]; 0.5 hours after dosing,0/4
same,"ScMet, fraction of rats",[4]; 1.0 hours after dosing,1/4
same,"ScMet, fraction of rats",[4]; 2.0 hours after dosing,1/4
same,"ScMet, fraction of rats",[4]; 4.0 hours after dosing,0/4
same,"Toxicity, fraction of rats",minimal neurotoxicity [5]; 0.25 hours after dosing,0/4
same,"Toxicity, fraction of rats",minimal neurotoxicity [5]; 0.5 hours after dosing,0/4
same,"Toxicity, fraction of rats",minimal neurotoxicity [5]; 1.0 hours after dosing,0/4
same,"Toxicity, fraction of rats",minimal neurotoxicity [5]; 2.0 hours after dosing,0/4
same,"Toxicity, fraction of rats",minimal neurotoxicity [5]; 4.0 hours after dosing,0/4
same,"MES, fraction of rats",[7]; 0.25 hours after dosing,0/4
same,"MES, fraction of rats",[7]; 0.5 hours after dosing,0/4
same,"MES, fraction of rats",[7]; 1.0 hours after dosing,0/4
same,"MES, fraction of rats",[7]; 2.0 hours after dosing,0/4
same,"MES, fraction of rats",[7]; 4.0 hours after dosing,0/4
"CC1(C)C(C(=O)NCC(N)=O)C1(C)C [N-2,2,3,3-tetramethylcyclopropylcarbonyl-glycinamide]",TD50,"minimal neurotoxicity [6]; oral administration to rats, literature comparison",above 500 mg/kg
same,protective index (TD50/ED50),[2],higher than 6.1
same,ED50,[2]; [9],greater than 250 mg/kg
"CC1(C)C(C(=O)NC(N)=O)C1(C)C [TMC-Urea, 2,2,3,3-tetramethylcyclopropanecarbonyl urea]","protective index, TD50-to-ED50 ratio",[1]; maximal electroshock (MES) tests,18.5
same,protective index (TD50/ED50),[2],18.5
same,ED50,[2]; [9],92 mg/kg
"CC1(C)C(C(=O)Nc2nnc(S(N)(=O)=O)s2)C1(C)C [Compound VII, N-(1,3,4-thiadiazole-2-sulfonamide)-2,2,3,3-tetramethylcyclopropanecarboxamide]",teratogenicity,teratogenicity,teratogenic
same,MES-ED50,[8],17 mg/kg
same,MES-ED50,[1]; orally treated rat models,9.2 mg/kg
same,neurotoxicity,minimal neurotoxicity [6]; at 500 mg/kg doses,none-neurotoxic
